Results on eleven compounds are retold here after patent US5089497A, “Substituted piperazines as central nervous system agents” (Warner-Lambert Company, priority 1990, dated 1992).

What is called ED50 is the dose that gives a 50% effect, or the effect in half of the subjects. As usually defined, the IC50 is the midpoint of a concentration-inhibition curve. Higher therefore signals lower potency.

In assay [1] the test system is Locomotor Activity in Mice. Briefly: Inhibition of locomotor activity in mice. It is filed as in vivo. The conditions noted are these: Mus musculus, IP. The text has this: The above test methods are incorporated herein by reference.
Assay [2] has as its target T1, [^3 H]Spiroperidol Binding (Homo sapiens, UniProt P14416).
T1 construct: from tissue; host or cells: brain (striatum) membranes
Briefly: Inhibition of [^3 H]spiroperidol binding in a receptor assay. The method, then:
(§1) The compounds of Formula I are valuable dopaminergic agents. […] Thus, the compounds of Formula I were tested for their ability to inhibit locomotor activity in mice according to the assay described by J. R. McLean, et al, Pharmacology, Biochemistry and Behavior, Volume 8, pages 97-99 (1978); for their ability to inhibit [^3 H]spiroperidol binding in a receptor assay described by D. Grigoriadis and P. Seeman, Journal of Neurochemistry, Volume 44, pages 1925-1935 (1985); and for their ability to inhibit dopamine synthesis in rats according to the protocol described by J. R. Walters and R. H. Roth, Naunyn-Schmiedeberg's Archives of Pharmacology, Volume 296, pages 5-14 (1976). The above test methods are incorporated herein by reference. The data in the table show the dopaminergic activity of representative compounds of Formula I.

The next assay has as its system Brain Dopamine Synthesis. In words: Reversal of brain dopamine synthesis in rats (inhibition of dopamine synthesis). It is filed as in vivo. The conditions noted are these: at 10 mg/kg, IP. The method, then: as §1

T1 sequence (P14416 whole entry): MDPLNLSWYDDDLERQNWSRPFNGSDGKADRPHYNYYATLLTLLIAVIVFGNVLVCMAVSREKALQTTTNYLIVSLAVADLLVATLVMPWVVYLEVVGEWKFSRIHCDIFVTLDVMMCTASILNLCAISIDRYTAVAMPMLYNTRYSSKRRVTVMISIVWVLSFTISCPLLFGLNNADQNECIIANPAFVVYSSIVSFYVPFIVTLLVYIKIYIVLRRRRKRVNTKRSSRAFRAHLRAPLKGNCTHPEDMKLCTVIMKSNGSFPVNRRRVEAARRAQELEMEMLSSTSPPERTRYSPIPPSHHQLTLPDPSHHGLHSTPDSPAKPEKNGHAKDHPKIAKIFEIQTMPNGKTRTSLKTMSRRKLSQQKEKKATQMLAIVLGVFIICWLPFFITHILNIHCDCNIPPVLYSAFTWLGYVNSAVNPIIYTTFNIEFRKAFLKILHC

Turning to `c1ccc(N2CCN(CCCc3cccnc3)CC2)nc1` [Example 1, 1-(2-Pyridinyl)-4-[3-(3-pyridinyl)propyl]piperazine], the ED50 in assay [1] is 3.1 mg/kg.
Compound `O=C(CCCN1CCN(c2ccccn2)CC1)c1cccnc1` [Example 2, 1-(3-Pyridinyl)-4-[4-(2-pyridinyl)-1-piperazinyl]-1-butanone] gave an IC50 in assay [2] of 2870 nM. The “% Reversal of Brain Dopamine Synthesis in Rats” value (from here on “% Reversal”) in the assay with Brain Dopamine Synthesis was determined as 43%. This compound also returned an ED50 in assay [1] of 6.3 mg/kg.
Take `O=C(CCCN1CCN(c2ccccn2)CC1)c1ccncc1` [Example 4, 1-(4-Pyridinyl)-4-[4-(2-pyridinyl)-1-piperazinyl]-1-butanone]: the IC50 in assay [2] is 2130 nM. Also, the “% Reversal” value in the assay on Brain Dopamine Synthesis is 35%. This compound also came in with an ED50 in assay [1] of 7.6 mg/kg.
Compound `O=C(CCCN1CCN(c2ccccn2)CC1)c1cnc2ccccc2c1` [Example 6, 1-(3-Quinolinyl)-4-[4-(2-pyridinyl)-1-(piperazinyl)]-1-butanone] yielded an IC50 in assay [2] of 486 nM. This compound also gave an ED50 in assay [1] of 2.8 mg/kg.
Turning to `O=C(CCCN1CCN(c2ccccn2)CC1)c1ccnc2ccccc12` [Example 7, 1-(4-Quinolinyl)-4-[4-(2-pyridinyl)-1-piperazinyl]-1-butanone], in assay [1], the ED50 was 13 mg/kg.
For the compound `c1ccc(N2CCN(CCCCc3cccnc3)CC2)nc1` [Example 8, 1-(2-Pyridinyl)-4-[4-(3-pyridinyl)butyl]piperazine], the “% Reversal” value in the assay with Brain Dopamine Synthesis is 67%. This compound also returned an ED50 in assay [1] of 2.7 mg/kg.
Consider `c1ccc(N2CCN(CCCCc3ccncc3)CC2)nc1` [Example 9], for which the IC50 in assay [2] turned out to be 835 nM. Further, the “% Reversal” value with Brain Dopamine Synthesis is on record as 79%. Further, it took a dose of 4 mg/kg to reach the 50% effect level in assay [1] (ED50).
In the same order, the values of `c1cnc(N2CCN(CCCCc3ccncc3)CC2)nc1` [Example 10, 2-[4-[4-(4-Pyridinyl)butyl]-1-piperazinyl]pyrimidine] are 4180 nM, 35% and 10.1 mg/kg.
In the same order, the values of `c1ccc(N2CCN(CCCCc3cnc4ccccc4c3)CC2)nc1` [Example 11] are 155 nM, 100% and 2.2 mg/kg.
For `c1cnc(N2CCN(CCCCc3cnc4ccccc4c3)CC2)nc1` [Example 12, 3-[4-[4-(2-Pyrimidinyl)-1-piperazinyl]butyl]quinoline], the ED50 in assay [1] worked out at 1.2 mg/kg.
As for `c1ccc(N2CCN(CCCCc3ccnc4ccccc34)CC2)nc1` [Example 13, 4-[4-[4-(2-Pyridinyl)-1-piperazinyl]butyl]quinoline], the IC50 in assay [2] was 279 nM. In assay [1], this compound yielded an ED50 of 3.2 mg/kg.
